Test results: patent US20170312260A1 (LAUNX BIOMEDICAL CO., LTD., priority 2014, published 2017)
Where “and” joins values, the source holds several entries; their conditions need not be identical. Identical values can stand only once. Like-named read-outs stand apart in the source and are kept apart here.

How the values were obtained:
[1] = tested on: C-33A (Cervical carcinoma); assay: WST-1 cell viability analysis, C-33A; format: cell-based; settings: Homo sapiens, 72 hours, read-out: viability (survival rate) of C-33A cells
Description: (§1) The cell numbers were counted and reseed as 2×10^6 in cell culture plate/flask. Then, the culture medium were added to a volume of 10 ml, and the cells were cultured for 2-3 days. Then, the cells were suspended for loading into 96-well plates. The number of cells was 3000 and the volume of the culture medium was 100 μl each well.
(§2) Removing the original culture medium from 96-well plate. Then add 100 μl of commercially drug at a concentration of 10 μM per well. After 72 hours, add the diluted WST-1 reagent to the well with 100 μl/well, and the diluted WST-1 reagent was acquired from the dilution of 9:1 medium and WST-1 stock reagent. Finally, the total volume of each well was 200 μl/well. Culture the 96-well plate at 37° C. for 30 to 90 minutes. Detecting and calculate the survival rate of each cancer cells with an ELISA reader at OD450 nm.

[2] = tested on: breast cancer cell line MCF7; assay: WST-1 cell viability analysis, MCF7; format: cell-based; settings: Homo sapiens, MCF7, 10 μM, 72 hours, read-out: viability (survival rate) of MCF7 cells
Description: as §1, §2

[3] = tested on: ovarian cancer cell line TOV-21G; assay: WST-1 cell viability analysis, TOV-21G; format: cell-based; settings: Homo sapiens, TOV21G
Description: as §1, §2

[4] = tested on: HepG2 (hepatocellular carcinoma); assay: WST-1 cell viability analysis, HepG2; format: cell-based; settings: Homo sapiens, HepG2, 10 μM, 72 hours, read-out: viability (survival rate) of HepG2 cells
[5] = tested on: LoVo(Colorectal Adenocarcinoma); assay: WST-1 cell viability analysis, LoVo; format: cell-based; settings: Homo sapiens
Description: as §1, §2

[6] = tested on: SAS (Tongue squamous cell carcinoma); assay: WST-1 cell viability analysis, SAS; format: cell-based
Description: as §1, §2

[7] = tested on: BCC (basal cell carcinoma); assay: WST-1 cell viability analysis, BCC; format: cell-based; settings: 72 hours, read-out: viability (survival rate) of BCC cells
bladder cancer cells = assay: Summary of cell viability, bladder cancer; format: cell-based; settings: 72 hours, summary over the bladder cancer cell lines, read-out: Inhibitory effect, bladder cancer
Description: as §1, §2
(§3) As a result in the experiments of the present invention.

cancers cell lines = assay: Inhibition test on all kinds of cancer cell lines (overall statement); format: cell-based; settings: several / various cancer cell lines, Table 18, FIG. 1
Description: as §1, §2, §3

[8] = tested on: gastric cancer cells (AGS); assay: Animal model test, subcutaneous tumor in nude mice; format: in vivo, female mice (BALB/cAnN.Cg-Foxn1^nu/CrlNarl); settings: for tumor volume growth, average / tumor volume, average: average of mice; for tumor longest length / tumor volume / tumor volume growth / tumor width: single mice A-C
Description: Animal Model Test of […] with Dose 100 mg/kg/Day and 200 mg/kg/day
(§4) In this invention, the female mice were (BALB/cAnN.Cg-Foxn1^nu/CrlNarl) purchased from National Laboratory Animal Center (Taiwan)). The weight of the mice were 21±1 g. These mice were subcutaneously injected with gastric cancer cells (AGS) and then put these mice into different cages at random. The drug test experiment was divided into three groups, include “normal control group”, “low dose group (100 mg/kg/day)”, and “high dose group (200 mg/kg/day)”. These mice were then injected test drug intraperitoneally once daily […]. The tumor sizes and body weight were measured twice a week. The tumor sizes were measured and calculated by formula: (L×W^2)/2. L represents the tumor longest length. W represents the tumor shortest diameter.

[9] = Animal model test, body weight and health status of mice; format: in vivo, female mice (BALB/cAnN.Cg-Foxn1^nu/CrlNarl); settings: for weight: single mice A-C
Description: as §4

[10] = high dose (200 mg/kg/day) i.p., Fifth measurement
[11] = high dose (200 mg/kg/day) i.p., First measurement
[12] = high dose (200 mg/kg/day) i.p., First measurement, 200 mg/kg/day
[13] = high dose (200 mg/kg/day) i.p., Fourth measurement
[14] = high dose (200 mg/kg/day) i.p., Second measurement
[15] = high dose (200 mg/kg/day) i.p., Second measurement, 200 mg/kg/day
[16] = high dose (200 mg/kg/day) i.p., Third measurement
[17] = low dose (100 mg/kg/day) i.p., Fifth measurement
[18] = low dose (100 mg/kg/day) i.p., First measurement
[19] = low dose (100 mg/kg/day) i.p., First measurement, 100 mg/kg/day
[20] = low dose (100 mg/kg/day) i.p., Fourth measurement
[21] = low dose (100 mg/kg/day) i.p., Second measurement
[22] = low dose (100 mg/kg/day) i.p., Second measurement, 100 mg/kg/day
[23] = low dose (100 mg/kg/day) i.p., Third measurement
[24] = low dose (100 mg/kg/day) i.p., Third measurement, 100 mg/kg/day

CC1=C(C(=O)OC(C)C)C(c2cccc([N+](=O)[O-])c2)C(C(=O)OC2CN(C(c3ccccc3)c3ccccc3)C2)=C(N)N1 (stereo not shown) [Azelnidipine]
viability at 10 µM ([1]; run 0524-10 min): 142%
viability at 10 µM ([1]; run 0526-10 min): 111%
viability at 10 µM ([1]; run 0529-10 min): 123%
viability at 10 µM ([1]; run 0531-10 min): 117%
viability at 10 µM ([2]; run 0612-10 min): 48.6%
viability at 10 µM ([2]; run 0614-10 min): 46.6%
viability at 10 µM ([2]; run 0616-10 min): 68.2%
viability at 10 µM ([2]; run 0619-10 min): 79.9%
viability at 10 µM ([3]; 72 h, average of 4 tests, read-out: average viability of TOV-21G cells): 27.2%
viability at 10 µM ([3]; 72 hours, run 4-30 min, read-out: viability (survival rate) of TOV-21G cells): 60.1%
viability at 10 µM ([3]; 72 hours, run 7-3-30 min, read-out: viability (survival rate) of TOV-21G cells): 15.6%
viability at 10 µM ([3]; 72 hours, run 7-4-30 min, read-out: viability (survival rate) of TOV-21G cells): 13.3%
viability at 10 µM ([3]; 72 hours, run 7-7-30 min, read-out: viability (survival rate) of TOV-21G cells): 19.6%
viability at 10 µM ([4]; run 0524-20 min): 110%
viability at 10 µM ([4]; run 0526-20 min): 87.2%
viability at 10 µM ([4]; run 0529-20 min): 112%
viability at 10 µM ([4]; run 0531-20 min): 93.7%
viability at 10 µM ([5]; 72 h, average of 4 tests, read-out: Average viability of LoVo cells): 59.9%
viability at 10 µM ([5]; 72 hours, run 0616-10 min, read-out: viability (survival rate) of LoVo cells): 49.6%
viability at 10 µM ([5]; 72 hours, run 0619-10 min, read-out: viability (survival rate) of LoVo cells): 67.2%
viability at 10 µM ([5]; 72 hours, run 0621-10 min, read-out: viability (survival rate) of LoVo cells): 62.3%
viability at 10 µM ([5]; 72 hours, run 0623-10 min, read-out: viability (survival rate) of LoVo cells): 60.3%
viability at 10 µM ([6]; 72 h, average of 4 tests, read-out: Average viability of SAS cells): 76.8%
viability at 10 µM ([6]; 72 h, summary (SAS), read-out: Inhibitory effect, tongue cancer): 76.8%
viability at 10 µM ([6]; 72 hours, run 6-26-10 min, read-out: viability (survival rate) of SAS cells): 69.9%
viability at 10 µM ([6]; 72 hours, run 6-28-10 min, read-out: viability (survival rate) of SAS cells): 66%
viability at 10 µM ([6]; 72 hours, run 6-30-10 min, read-out: viability (survival rate) of SAS cells): 66.7%
viability at 10 µM ([6]; 72 hours, run 7-3-10 min, read-out: viability (survival rate) of SAS cells): 105%
viability at 10 µM ([7]; run 0602-30 min): 77.7%
viability at 10 µM ([7]; run 0605-10 min): 127%
viability at 10 µM ([7]; run 0607-10 min): 95.7%
viability at 10 µM (bladder cancer cells): 97.3%
inhibitory effect on cancer cell lines (in words) (cancers cell lines): significant inhibitory effect
tumor volume growth, average [8, 10]: 0 mm^3
tumor volume, average [8, 10]: 0 mm^3
tumor longest length [8, 10]: 0 mm
tumor volume [8, 10]: 0 mm^3
tumor volume growth [8, 10]: 0 mm^3
tumor width [8, 10]: 0 mm
tumor volume growth, average [8, 11]: 25.67 mm^3
tumor volume, average [8, 11]: 25.67 mm^3
tumor longest length [8, 12]: 4 mm and 6 mm
tumor volume [8, 12]: 18 mm^3 and 27 mm^3 and 32 mm^3
tumor volume growth [8, 12]: 18 mm^3 and 27 mm^3 and 32 mm^3
tumor width [8, 12]: 3 mm and 4 mm
tumor volume growth, average [8, 13]: −50 mm^3
tumor volume, average [8, 13]: 0 mm^3
tumor longest length [8, 13]: 0 mm
tumor volume [8, 13]: 0 mm^3
tumor width [8, 13]: 0 mm
tumor volume growth, average [8, 14]: 57.67 mm^3
tumor volume, average [8, 14]: 83.33 mm^3
tumor width [8, 14]: 5 mm
tumor longest length [8, 15]: 7 mm and 6 mm
tumor volume [8, 15]: 87.5 mm^3 and 75 mm^3
tumor volume growth [8, 15]: 69.5 mm^3 and 48 mm^3 and 55.5 mm^3
tumor volume growth, average [8, 16]: −33.3333 mm^3
tumor volume, average [8, 16]: 50 mm^3
inhibition of tumor growth, high dose compared with low dose (in words) ([8]; high dose, FIG. 3): better effect to inhibit tumor growth
tumor volume growth, average [8, 17]: 2.667 mm^3
tumor volume, average [8, 17]: 22 mm^3
tumor volume growth, average [8, 18]: 176.3333 mm^3
tumor volume, average [8, 18]: 176.3333 mm^3
tumor longest length [8, 19]: 8 mm and 6 mm and 7 mm
tumor width [8, 19]: 8 mm and 7 mm and 6 mm
tumor volume growth, average [8, 20]: −88 mm^3
tumor volume, average [8, 20]: 19.33 mm^3
tumor volume growth, average [8, 21]: −77.5 mm^3
tumor volume, average [8, 21]: 98.83 mm^3
tumor longest length [8, 22]: 7 mm and 6 mm and 5 mm
tumor width [8, 22]: 6 mm and 5 mm
tumor volume growth, average [8, 23]: 0 mm^3
tumor volume, average [8, 23]: 98.83 mm^3
tumor volume growth [8, 23]: 0 mm^3
tumor longest length [8, 24]: 7 mm and 6 mm and 5 mm
tumor width [8, 24]: 6 mm and 5 mm
inhibition effect on tumor cells (in words) ([8]; low dose and high dose, FIG. 2): significant inhibition effect
tumor volume (in words) ([8]; low dose and high dose, FIG. 3): reduce the tumor volume
tumor volume growth (in words) ([8]; low dose and high dose, FIG. 3): effectively slow down the tumor volume growth
health status / death of tested mice during the treatment (in words) ([9]; both high and low doses): without death
weight ([9]; high dose (200 mg/kg/day) i.p., Fifth measurement, 200 mg/kg/day): 20 g and 21 g
weight [9, 12]: 20 g and 19.5 g
weight ([9]; high dose (200 mg/kg/day) i.p., Fourth measurement, 200 mg/kg/day): 20 g and 21 g
weight [9, 15]: 19 g and 20 g
weight ([9]; high dose (200 mg/kg/day) i.p., Third measurement, 200 mg/kg/day): 20.5 g and 19 g and 20 g
weight ([9]; low dose (100 mg/kg/day) i.p., Fifth measurement, 100 mg/kg/day): 20 g and 21 g
weight [9, 18]: 21 g
weight ([9]; low dose (100 mg/kg/day) i.p., Fourth measurement, 100 mg/kg/day): 20 g and 21 g
weight [9, 22]: 20 g and 19 g
weight [9, 24]: 19.5 g and 19 g and 18.5 g
weight of mice during the experiment (in words) ([9]; low dose and high dose): did not show a significant decrease
